Where two headings read alike, the source gives them in different places.
How the values were obtained:
rats = test: Antipyretic activity, E. coli suspension as pyrogen; format: in vivo; details: in °C (unit assumed)
Protocol: Rats are administered with sterilized E. coli suspension as a pyrogen. Each group of rats are administered with a prodrug compounds or parent compounds at a dosage specified below. The prodrug compounds are administered either orally or transdermally. The parent compounds are administered orally.

mice = test: Analgesic activity, acetic acid writhing; format: in vivo; details: 30 min before acetic acid
Protocol: The prodrug compounds are administered either transdermally or orally. The parent compounds are administered orally. The number of writhing that occurred when mice are administered the acetic acid solution are counted, and the rate of inhibition based on the control group which was not pretreated with any test compounds is calculated. […] The A group is the control group.

[1] = Plasma levels after transdermal administration to hairless mice; format: in vivo
Protocol: Tested compounds (20% solution or suspension in 1 mL isopropanol) are administered transdermally to the skin of intact hairless mice. The plasma levels of the parent compounds are determined by HPLC.

human skin tissue [2] = details: pH 7.4
Chinese white rabbits [3] = test: Malassezia-induced lesions similar to psoriasis; format: in vivo, rabbit; details: 5% aqueous solution twice per day, 10 days after application
From the text: Heavy suspensions of Malassezia [Rosenberg, E. W., et al., Mycopathologia, 72, 147-154 (1980)] were applied to the shaved skin on the backs of the Chinese white rabbits (n=4×6) twice (at 7 am and 7 pm) per day for 2 weeks, lesions similar to psoriasis resulted.

Chinese white rabbits [4] = test: Wound healing, scar area; format: in vivo, rabbit; details: 5% aqueous solution applied to the nearby area of wounds, vs control rabbits
From the text: 25 Chinese white rabbits were divided into 5 groups and hairs on the back of rabbits were removed (5×5 cm^2).

human skin tissue [5] = test: In vitro penetration rate through human skin, modified Franz cells; details: Franz cell; for In vitro penetration rate (apparent flux), prodrug compounds: 20% solution in 0.2 M phosphate buffer pH 7.4, human skin
[6] = Solubility in water / aqueous solubility of HPPs and parent drugs
[7] = transdermal, 20% in 1 mL isopropanol, hairless mice
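For LD50 of HPP in this document: acute toxicity in rats expressed as LD50, determined for both prodrugs and their parent compounds.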

CC(=O)O.CCN(CC)CCOC(=O)Cc1sc(-c2ccccc2)nc1-c1ccc(Cl)cc1 [diethylaminoethyl 4-(4-chlorophenyl)-2-phenyl-5-thiazoleacetate.AcOH]
body temperature, t = 0 min (rats; 100 mg/kg transdermally): 37.23 ± 0.06 | body temperature, t = 90 min (rats; 100 mg/kg transdermally): 36.81 ± 0.05 | body temperature, t = 180 min (rats; 100 mg/kg transdermally): 36.75 ± 0.08 | body temperature, t = 270 min (rats; 100 mg/kg transdermally): 36.71 ± 0.07 | % (rate of writhing inhibition) (mice; 100 mg/kg transdermally): 54% | No. of Writhing (mice; 100 mg/kg transdermally): 16.1 | LD50 of HPP (rat; rats): 1200 mg/kg | Peak plasma concentration of parent compound after prodrug compound ([1]; mouse, in vivo): 20 mg/L | t, time to peak plasma level of parent compound after prodrug compound ([1]; mouse, in vivo): 50 min | In vitro penetration rate (apparent flux), prodrug compounds (human skin tissue [2]): 1300 μg/cm^2/h | lesions similar to psoriasis (Chinese white rabbits [3]): the lesions were resolved

CCN(CC)CCOC(=O)COC(=O)Cc1c(C)n(C(=O)c2ccc(Cl)cc2)c2ccc(OC)cc12.Cl [diethylaminoethyl 1-(4-chlorobenzoyl-5-methoxy-2-methyl-1H-indole-3-acetoxyacetate.HCl]
average scar area (Chinese white rabbits [4]): only a third of that of the control rabbits

CC(=O)O.CCN(CC)CCOC(=O)C(C)c1c(C)n(C(=O)c2ccc(Cl)cc2)c2ccc(OC)cc12 (stereo not drawn) [diethylaminoethyl α-methyl-(p-chlorobenzoyl)-5-methoxy-2-methylindole 3-acetate.AcOH]
body temperature, t = 0 min (rats; 100 mg/kg transdermally): 37.35 ± 0.06 | body temperature, t = 90 min (rats; 100 mg/kg transdermally): 36.71 ± 0.05 | body temperature, t = 180 min (rats; 100 mg/kg transdermally): 36.60 ± 0.08 | body temperature, t = 270 min (rats; 100 mg/kg transdermally): 36.59 ± 0.07 | In vitro penetration rate (apparent flux), prodrug compounds (human skin tissue [5]): 4000 μg/cm^2/h | % (rate of writhing inhibition) (mice; 100 mg/kg transdermally): 61% | No. of Writhing (mice; 100 mg/kg transdermally): 13.8 | Peak plasma concentration of parent compound after prodrug compound [1, 7]: 2000 mg/L | t, time to peak plasma level of parent compound after prodrug compound [1, 7]: 50 min | Solubility of HPP ([6]; medium not given): >450 mg/mL

CC(=O)O.CCN(CC)CCOC(=O)Cc1ccccc1Nc1c(Cl)cccc1Cl [diethylaminoethyl 2[(2,6-dichlorophenyl)amino]benzene acetate.AcOH]
body temperature, t = 0 min (rats; 10 mg/kg orally): 37.52 ± 0.07 | body temperature, t = 90 min (rats; 10 mg/kg orally): 36.50 ± 0.06 | body temperature, t = 180 min (rats; 10 mg/kg orally): 36.60 ± 0.05 | body temperature, t = 270 min (rats; 10 mg/kg orally): 36.55 ± 0.08 | body temperature, t = 0 min (rats; 10 mg/kg transdermally): 37.58 ± 0.06 | body temperature, t = 90 min (rats; 10 mg/kg transdermally): 36.30 ± 0.06 | body temperature, t = 180 min (rats; 10 mg/kg transdermally): 36.35 ± 0.08 | body temperature, t = 270 min (rats; 10 mg/kg transdermally): 36.31 ± 0.07 | body temperature, t = 0 min (rats; 20 mg/kg orally): 37.54 ± 0.08 | body temperature, t = 90 min (rats; 20 mg/kg orally): 36.30 ± 0.05 | body temperature, t = 180 min (rats; 20 mg/kg orally): 36.35 ± 0.07 | body temperature, t = 270 min (rats; 20 mg/kg orally): 36.38 ± 0.08 | body temperature, t = 0 min (rats; 20 mg/kg transdermally): 37.59 ± 0.05 | body temperature, t = 90 min (rats; 20 mg/kg transdermally): 36.25 ± 0.05 | body temperature, t = 180 min (rats; 20 mg/kg transdermally): 36.30 ± 0.07 | body temperature, t = 270 min (rats; 20 mg/kg transdermally): 36.20 ± 0.05 | In vitro penetration rate (apparent flux), prodrug compounds (human skin tissue [5]): 5000 μg/cm^2/h | % (rate of writhing inhibition) (mice; 10 mg/kg orally): 64.6% | No. of Writhing (mice; 10 mg/kg orally): 12.1 | % (rate of writhing inhibition) (mice; 10 mg/kg transdermally): 69.9% | No. of Writhing (mice; 10 mg/kg transdermally): 10.3 | % (rate of writhing inhibition) (mice; 20 mg/kg orally): 73.1% | No. of Writhing (mice; 20 mg/kg orally): 9.2 | % (rate of writhing inhibition) (mice; 20 mg/kg transdermally): 74.3% | No. of Writhing (mice; 20 mg/kg transdermally): 8.8 | LD50 of HPP (rat; rat, in vivo): 800 mg/kg | Peak plasma concentration of parent compound after prodrug compound [1, 7]: 2100 mg/L | t, time to peak plasma level of parent compound after prodrug compound [1, 7]: 40 min | Solubility of HPP ([6]; in water): >300 mg/mL | Solubility in water ([6]; product as prepared in Example 1): 400 mg/mL

C=CCOc1ccc(CC(=O)OCCN(CC)CC)cc1Cl.CC(=O)O [diethylaminoethyl 3-chloro-4-(2-propenyloxy)benzeneacetate.AcOH]
body temperature, t = 0 min (rats; 100 mg/kg transdermally): 37.23 ± 0.07 | body temperature, t = 90 min (rats; 100 mg/kg transdermally): 36.80 ± 0.06 | body temperature, t = 180 min (rats; 100 mg/kg transdermally): 36.70 ± 0.05 | body temperature, t = 270 min (rats; 100 mg/kg transdermally): 36.67 ± 0.08 | % (rate of writhing inhibition) (mice; 100 mg/kg transdermally): 55% | No. of Writhing (mice; 100 mg/kg transdermally): 15.7 | LD50 of HPP (rat; rats): 3000 mg/kg | Peak plasma concentration of parent compound after prodrug compound ([1]; mouse, in vivo): 20 mg/L | t, time to peak plasma level of parent compound after prodrug compound ([1]; mouse, in vivo): 50 min | In vitro penetration rate (apparent flux), prodrug compounds (human skin tissue [2]): 1000 μg/cm^2/h | lesions similar to psoriasis (Chinese white rabbits [3]): the lesions were resolved

C=CCOc1ccc(CC(=O)OCCN(CC)CC)cc1Cl.Cl [diethylaminoethyl 3-chloro-4-(2-propenyloxy)benzeneacetate.HCl]
average scar area (Chinese white rabbits [4]): only a third of that of the control rabbits

CCN(CC)CCOC(=O)Cc1cn(-c2ccccc2)nc1-c1ccc(Cl)cc1.Cl [diethylaminoethyl 3-(4-chlorophenyl)-1-phenyl-1H-pyrazole-4-acetate.HCl]
average scar area (Chinese white rabbits [4]): only a third of that of the control rabbits

CCN(CC)CCOC(=O)Cc1cccc(C(=O)c2ccc(Br)cc2)c1N.Cl [diethylaminoethyl 2-amino-3-(4-bromo-benzoyl)benzeneacetate.HCl]
average scar area (Chinese white rabbits [4]): only a third of that of the control rabbits

CC(=O)O.CCc1cccc2c3c([nH]c12)C(CC)(CC(=O)OCCN(CC)CC)OCC3 (stereo not drawn) [diethylaminoethyl 1,8-diethyl-1,3,4,9-tetrahydropyrano-[3,4-b]indole-1-acetate.AcOH]
body temperature, t = 0 min (rats; 100 mg/kg transdermally): 37.23 ± 0.06 | body temperature, t = 90 min (rats; 100 mg/kg transdermally): 36.65 ± 0.06 | body temperature, t = 180 min (rats; 100 mg/kg transdermally): 36.58 ± 0.08 | body temperature, t = 270 min (rats; 100 mg/kg transdermally): 36.60 ± 0.07 | % (rate of writhing inhibition) (mice; 100 mg/kg transdermally): 60% | No. of Writhing (mice; 100 mg/kg transdermally): 14.0 | LD50 of HPP (rat; rats): 600 mg/kg | Peak plasma concentration of parent compound after prodrug compound ([1]; mouse, in vivo): 20 mg/L | t, time to peak plasma level of parent compound after prodrug compound ([1]; mouse, in vivo): 50 min | In vitro penetration rate (apparent flux), prodrug compounds (human skin tissue [2]): 1300 μg/cm^2/h | lesions similar to psoriasis (Chinese white rabbits [3]): the lesions were resolved

CCc1cccc2c3c([nH]c12)C(CC)(CC(=O)OCCN(CC)CC)OCC3.Cl (stereo not drawn) [diethylaminoethyl 1,8-diethyl-1,3,4,9-tetrahydropyrano-[3,4-b]indole-1-acetate.HCl]
average scar area (Chinese white rabbits [4]): only a third of that of the control rabbits

CC(=O)O.CCN(CC)CCOC(=O)Cc1cccc(C(=O)c2ccc(Br)cc2)c1N [diethylaminoethyl 2-amino-3-(4-bromo-benzoyl)benzeneacetate.AcOH]
body temperature, t = 0 min (rats; 100 mg/kg transdermally): 37.25 ± 0.06 | body temperature, t = 90 min (rats; 100 mg/kg transdermally): 36.71 ± 0.05 | body temperature, t = 180 min (rats; 100 mg/kg transdermally): 36.65 ± 0.08 | body temperature, t = 270 min (rats; 100 mg/kg transdermally): 36.64 ± 0.07 | % (rate of writhing inhibition) (mice; 100 mg/kg transdermally): 62% | No. of Writhing (mice; 100 mg/kg transdermally): 13.2 | LD50 of HPP (rat; rats): 1600 mg/kg | Peak plasma concentration of parent compound after prodrug compound ([1]; mouse, in vivo): 20 mg/L | t, time to peak plasma level of parent compound after prodrug compound ([1]; mouse, in vivo): 50 min | In vitro penetration rate (apparent flux), prodrug compounds (human skin tissue [2]): 1100 μg/cm^2/h | lesions similar to psoriasis (Chinese white rabbits [3]): the lesions were resolved

CCN(CC)CCOC(=O)Cc1sc(-c2ccccc2)nc1-c1ccc(Cl)cc1.Cl [diethylaminoethyl 4-(4-chlorophenyl)-2-phenyl-5-thiazoleacetate.HCl]
average scar area (Chinese white rabbits [4]): only a third of that of the control rabbits

CCN(CC)CCOC(=O)Cc1cc(C)c(C(=O)c2ccc(Cl)cc2)n1C.Cl [diethylaminoethyl 5-(4-Chlorobenzoyl)-1,4-dimethyl-1H-pyrrole-2-acetate.HCl]
average scar area (Chinese white rabbits [4]): only a third of that of the control rabbits

CC(C)Cc1ccc(C(C)C(=O)OCC2CCCNC2)cc1.Cl (stereo not drawn) [3-piperidinemethyl 2-(ρ-isobutylphenyl) propionate.HCl]
average scar area (Chinese white rabbits [4]): only a third of that of the control rabbits

CCN(CC)CCOC(=O)Cc1ccc(C(=O)c2ccc(C)cc2)n1C.Cl [diethylaminoethyl 1-methyl-5-(4-methylbenzoyl)-1H-pyrrole-2-acetate.HCl]
average scar area (Chinese white rabbits [4]): only a third of that of the control rabbits

CC(C(=O)O)c1cccc(C(=O)c2ccccc2)c1 (stereo not drawn) [Ketoprofen, 2-(3-benzoylphenyl) propionic acid, reference compound]
body temperature, t = 0 min (rats; 50 mg/kg orally): 37.25 ± 0.06 | body temperature, t = 90 min (rats; 50 mg/kg orally): 36.81 ± 0.05 | body temperature, t = 180 min (rats; 50 mg/kg orally): 36.82 ± 0.08 | body temperature, t = 270 min (rats; 50 mg/kg orally): 36.78 ± 0.07 | In vitro penetration rate (apparent flux), parent compounds (human skin tissue [5]; 20% suspension in 0.2 M phosphate buffer pH 7.4, human skin, detection limit 1): <1 μg/cm^2/h | No. of Writhing (mice; 50 mg/kg orally): 18.1 | inhibition at 50 mg/kg (mice; Mus musculus, po, 50 mg/kg orally, read-out: % (rate of writhing inhibition)): 48% | t, time to peak plasma level after parent compound ([1]; parent compound administered (time when taken orally)): 1 to 2 h | Peak plasma concentration after parent compound ([1]; parent compound administered, hairless mice): 1 mg/L
